Where a name gives a salt, the structure may show the parent alone. Bounds are passed on as bounds.

In the assay the target is T1, His-EBNA1 (DNA binding domain of EBNA1, amino acids 459-607) (Epstein-Barr virus, UniProt P03211).
T1 construct: made in house; host or cells: E. coli
T1 sequence (P03211 459-607): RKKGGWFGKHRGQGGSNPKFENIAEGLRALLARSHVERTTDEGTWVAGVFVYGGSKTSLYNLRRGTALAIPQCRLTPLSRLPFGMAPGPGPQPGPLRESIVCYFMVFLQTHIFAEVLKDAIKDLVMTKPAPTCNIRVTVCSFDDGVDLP
The assay can be described thus: Inhibition of 5′-biotin-oPL4624 binding to His-EBNA1 using Alpha Screen technology. As to conditions: Alpha Screen Activity (IC50, inhibition of 5′-biotin-oPL4624 binding to His-EBNA1), 15 nM His-EBNA1, 0.2 nM bt-oPL4624, 2 hr room temperature. Summed up:
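AlphaScreen signal (680 nm ex, 570 nm em) after a 2-h room-temperature incubation, normalized to no-EBNA1 (100% inhibition) and EBNA1 (0%) values and fit to a one-site curve. Final conditions: 15 nM His-EBNA1 (aa 459-607), 0.2 nM bt-oPL4624, Tris pH 7.2 buffer with 160 mM NaCl, compound 3.2 nM to 100 μM.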
Background: Bead proximity is the source of the signal in Alpha formats.
Regarding `O=C(O)c1cccc(C#Cc2cccc(O)c2)c1-c1ccc2c(Cl)c[nH]c2c1` [Entry 221, 2-(3-chloro-1H-indol-6-yl)-3-((3-hydroxyphenyl)ethynyl)benzoic acid], the IC50 (commonly the midpoint of a concentration-inhibition curve) fell in the range of 1 to 10 µM.
Regarding `O=C(O)c1cccc(C#Cc2cccc(O)c2)c1-c1ccc2cn[nH]c2c1` [Entry 222, 3-((3-hydroxyphenyl)ethynyl)-2-(1H-indazol-6-yl)benzoic acid], the IC50 fell in the range of 1 to 10 µM.
For `CC(=O)NCCc1c[nH]c2cc(-c3c(C#Cc4cccc(O)c4)cccc3C(=O)O)ccc12` [Entry 223, 2-(3-(2-acetamidoethyl)-1H-indol-6-yl)-3-((3-hydroxyphenyl)ethynyl)benzoic acid], the IC50 fell in the range of 1 to 10 µM.
For the compound `CN(C)S(=O)(=O)c1cccc(C#Cc2cccc(C(=O)O)c2F)c1` [Entry 224], the IC50 is 10 to 100 µM.
In turn, `O=C(O)c1cccc(C#Cc2ccc(OC3CCOCC3)cc2)c1-c1ccc2cc[nH]c2c1` [Entry 225, 2-(1H-indol-6-yl)-3-((4-(tetrahydro-2H-pyran-4-yloxy)phenyl)ethynyl)benzoic acid] yielded an IC50 below 1 µM.
As to `O=C(O)c1cccc(C#Cc2ccc(N3CCOCC3)cc2)c1-c1ccc2cc[nH]c2c1` [Entry 226, 2-(1H-indol-6-yl)-3-((4-morpholinophenyl)ethynyl)benzoic acid], the IC50 lay in the range of 10 to 100 µM.
With `NC(=O)c1cccc(C#Cc2cccc(C(=O)O)c2-c2ccc3cc[nH]c3c2)c1` [Entry 227, 3-((3-carbamoylphenyl)ethynyl)-2-(1H-indol-6-yl)benzoic acid], the IC50 is 10 to 100 µM.
To `O=C(O)c1cccc(C#Cc2ccc(F)cc2)c1-c1ccc2cc[nH]c2c1` [Entry 228, 3-((4-Fluorophenyl)ethynyl)-2-(1H-indol-6-yl)benzoic acid] belongs 1 to 10 µM; to `O=C(O)c1cccc(C#Cc2ccc(F)cc2F)c1-c1ccc2cc[nH]c2c1` [Entry 229, 3-((2,4-Difluorophenyl)ethynyl)-2-(1H-indol-6-yl)benzoic acid], 1 to 10 µM; to `CC(=O)Nc1cccc(C#Cc2cccc(C(=O)O)c2-c2ccc3cc[nH]c3c2)c1` [Entry 230, 3-((3-Acetamidophenyl)ethynyl)-2-(1H-indol-6-yl)benzoic acid], below 1 µM.
`O=C(Nc1cccc(C#Cc2cccc(C(=O)O)c2-c2ccc3cc[nH]c3c2)c1)c1cccnc1` [Entry 231, 2-(1H-indol-6-yl)-3-((3-(nicotinamido)phenyl)ethynyl)benzoic acid] gave an IC50 of 1 to 10 µM.
Compound `O=C(O)c1cccc(C#Cc2cccc(NS(=O)(=O)c3ccc(F)c(Cl)c3)c2)c1-c1ccc2cc[nH]c2c1` [Entry 232, 3-((3-(3-chloro-4-fluorophenylsulfonamido)phenyl)ethynyl)-2-(1H-indol-6-yl)benzoic acid] showed an IC50 below 1 µM.
As to `Nc1cccc(C#Cc2cccc(C(=O)O)c2-c2ccc3cc[nH]c3c2)c1` [Entry 233, 3-((3-aminophenyl)ethynyl)-2-(1H-indol-6-yl)benzoic acid], the IC50 was below 1 µM.
In turn, `CS(=O)(=O)Nc1cccc(C#Cc2cccc(C(=O)O)c2-c2ccc3cc[nH]c3c2)c1` [Entry 234, 2-(1H-indol-6-yl)-3-((3-(methylsulfonamido)phenyl)ethynyl)benzoic acid] gave an IC50 of 1 to 10 µM.
Compound `O=C(O)c1cccc(C#Cc2cccc(NS(=O)(=O)c3cccs3)c2)c1-c1ccc2cc[nH]c2c1` [Entry 235, 2-(1H-indol-6-yl)-3-((3-(thiophene-2-sulfonamido)phenyl)ethynyl)benzoic acid] gave an IC50 below 1 µM.
Under `CC(=O)Nc1cc(F)cc(C#Cc2cccc(C(=O)O)c2-c2ccc3cc[nH]c3c2)c1` [Entry 236, 3-((3-acetamido-5-fluorophenyl)ethynyl)-2-(1H-indol-6-yl)benzoic acid] stands below 1 µM; under `O=C(O)c1cccc(C#Cc2ccccc2)c1-c1ccc2c(c1)NCC2` [Entry 237, 2-(indolin-6-yl)-3-(phenylethynyl)benzoic acid], 10 to 100 µM; under `O=C(O)c1cccc(C#Cc2cccc(O)c2)c1-c1ccc2c(c1)NCC2` [Entry 238, 3-((3-hydroxyphenyl)ethynyl)-2-(indolin-6-yl)benzoic acid], 1 to 10 µM.
In the case of `Nc1cccc(C#Cc2cccc(C(=O)O)c2-c2ccc3cc[nH]c3c2)n1` [Entry 239, 3-((6-aminopyridin-2-yl)ethynyl)-2-(1H-indol-6-yl)benzoic acid], the IC50 was 1 to 10 µM.
On to `Nc1cc(C#Cc2cccc(C(=O)O)c2-c2ccc3cc[nH]c3c2)ccn1` [Entry 240, 3-((2-aminopyridin-4-yl)ethynyl)-2-(1H-indol-6-yl)benzoic acid], for which the IC50 was in the range of 1 to 10 µM.
In turn, `COc1cncc(-c2c(C#Cc3cccc(O)c3)cccc2C(=O)O)c1` [Entry 241, 3-((3-hydroxyphenyl)ethynyl)-2-(5-methoxypyridin-3-yl)benzoic acid] returned an IC50 of 10 to 100 µM.
`O=C(O)c1cccc(C#Cc2cccc(O)c2)c1-c1ccc2c(c1)OCO2` [Entry 242, 2-(benzo[d][1,3]dioxol-5-yl)-3-((3-hydroxyphenyl)ethynyl)benzoic acid]: the IC50 lay in the range of 10 to 100 µM.
`O=C(O)c1cccc(C#Cc2cccc(O)c2)c1-c1cncnc1` [Entry 243, 3-((3-hydroxyphenyl)ethynyl)-2-(pyrimidin-5-yl)benzoic acid] displayed an IC50 of 10 to 100 µM.
Turning to `COc1cc(-c2c(C#Cc3cccc(O)c3)cccc2C(=O)O)ccc1N` [Entry 244, 4′-Amino-6-((3-hydroxyphenyl)ethynyl)-5′-methoxybiphenyl-2-carboxylic acid], the IC50 lay in the range of 10 to 100 µM.
For the compound `O=C(O)c1cccc(C#CCCO)c1-c1ccc2cc[nH]c2c1` [Entry 245, 3-(4-hydroxybut-1-ynyl)-2-(1H-indol-6-yl)benzoic acid], the IC50 is below 1 µM.
To `CC(C)(N)C#Cc1cccc(C(=O)O)c1-c1ccc2cc[nH]c2c1` [Entry 246, 3-(3-amino-3-methylbut-1-ynyl)-2-(1H-indol-6-yl)benzoic acid] belongs 1 to 10 µM; to `O=C(O)c1cccc(C#CC(O)c2ccccc2)c1-c1ccc2cc[nH]c2c1` (stereo not drawn) [Entry 247, 3-(3-hydroxy-3-phenylprop-1-ynyl)-2-(1H-indol-6-yl)benzoic acid], below 1 µM; to `CC(C)(O)C#Cc1cccc(C(=O)O)c1-c1ccc2cc[nH]c2c1` [Entry 248, 3-(3-hydroxy-3-methylbut-1-ynyl)-2-(1H-indol-6-yl)benzoic acid], below 1 µM.
To `O=C(O)c1cccc(C#Cc2cccc(CO)c2)c1-c1ccc2cc[nH]c2c1` [Entry 249, 3-((3-(hydroxymethyl)phenyl)ethynyl)-2-(1H-indol-6-yl)benzoic acid] belongs 1 to 10 µM; to `O=C(O)c1cc2ccc(-c3c(C#Cc4ccccc4)cccc3C(=O)O)cc2[nH]1` [Entry 250, 6-(2-carboxy-6-(phenylethynyl)phenyl)-1H-indole-2-carboxylic acid], 1 to 10 µM.
With `CCOC(=O)c1cc2ccc(-c3c(C#Cc4ccccc4)cccc3C(=O)O)cc2[nH]1` [Entry 251, 2-(2-(ethoxycarbonyl)-1H-indol-6-yl)-3-(phenylethynyl)benzoic acid], the IC50 fell in the range of 1 to 10 µM.
Take `COc1cc(C#Cc2cccc(C(=O)O)c2-c2ccc3cc[nH]c3c2)cc(C(N)=O)c1` [Entry 252, 3-((3-carbamoyl-5-methoxyphenyl)ethynyl)-2-(1H-indol-6-yl)benzoic acid]: the IC50 is 1 to 10 µM.
To `O=C(O)c1cccc(C#Cc2ccccc2)c1-c1ccc2[nH]ccc2c1` [Entry 253, 2-(1H-indol-5-yl)-3-(phenylethynyl)benzoic acid] belongs 1 to 10 µM.
Under `O=C(O)c1cc2cc(-c3c(C#Cc4cccc(O)c4)cccc3C(=O)O)ccc2[nH]1` [Entry 254, 5-(2-carboxy-6-((3-hydroxyphenyl)ethynyl)phenyl)-1H-indole-2-carboxylic acid] stands 10 to 100 µM; under `COc1ccc(C#Cc2cccc(C(=O)O)c2-c2ccc3[nH]c(C(=O)O)cc3c2)cc1` [Entry 255, 5-(2-carboxy-6-((4-methoxyphenyl)ethynyl)phenyl)-1H-indole-2-carboxylic acid], 10 to 100 µM; under `O=C(O)c1cccc(C#Cc2ccc(F)c(OC3CCOCC3)c2)c1-c1ccc2cc[nH]c2c1` [Entry 256, 3-((4-fluoro-3-(tetrahydro-2H-pyran-4-yloxy)phenyl)ethynyl)-2-(1H-indol-6-yl)benzoic acid], 1 to 10 µM.
`CC(=O)Nc1cccc(-c2c(C#Cc3ccccc3)cccc2C(=O)O)c1` [Entry 257, 5′-acetamido-6-(phenylethynyl)biphenyl-2-carboxylic acid] came in with an IC50 of 10 to 100 µM.
In the case of `Nc1ccc2c(c1)ncn2CC#Cc1cccc(C(=O)O)c1-c1ccccc1` [Entry 258, 3-[3-(5-amino-1H-1,3-benzodiazol-1-yl)prop-1-yn-1-yl]-2-phenylbenzoic acid trifluoroacetate salt], the IC50 lay within 1 to 10 µM.
As to `O=C(O)c1cccc(C#Cc2ccncc2)c1-c1ccc2cc[nH]c2c1` [Entry 259, 2-(1H-indol-6-yl)-3-[2-(pyridin-4-yl)ethynyl]benzoic acid; trifluoroacetate salt], the IC50 fell in the range of 1 to 10 µM.
With `Cc1ccc(-c2c(C#Cc3ccncc3)cccc2C(=O)O)cc1` [Entry 260, 2-(4-methylphenyl)-3-[2-(pyridin-4-yl)ethynyl]benzoic acid; trifluoroacetate salt], the IC50 was 10 to 100 µM.
Under `Cc1ccc(-c2c(C#Cc3cccc(O)c3)cccc2C(=O)O)cc1` [Entry 261, 3-[2-(3-hydroxyphenyl)ethynyl]-2-(4-methylphenyl)benzoic acid] stands 10 to 100 µM; under `O=C(O)c1cccc(C#CCNc2ccc3[nH]cnc3c2)c1-c1ccccc1` [Entry 262, 3-{3-[(1H-1,3-benzodiazol-6-yl)amino]prop-1-yn-1-yl}-2-phenylbenzoic acid; trifluoroacetate salt], 1 to 10 µM.

(Values after US10421718B2, “EBNA1 inhibitors and their method of use” (priority 2013, dated 2019).)
